Assay results reported in US5869336A, “Recombinant enzymatically active calpain expressed in a baculovirus system” (Cephalon, Inc., priority 1997, dated 1999).
Like-named read-outs stand apart in the source and are kept apart here. Where a SMILES comes first, the peptide text is derived from it. [ ]: non-standard residue; d: D form. The star is where a group is joined. Sta = CC(C)C[C@H](N)[C@@H](O)CC(=O)O; Isovaleryl = CC(C)CC(=O)*; Nle = CCCC[C@H](N)C(=O)O

Legend:
[1] = imidazole-HCl/EGTA buffer, pH 7.3; used for approximating [Ca2+]; read-out: Kd of EGTA for calcium; cited from earlier work
[2] = target: T1, native calpain I (Homo sapiens, UniProt P07384); assay: Inhibitor profile: inhibition of Succ-Leu-Tyr-MNA hydrolysis by native calpain I; assay type: biochemical; conditions: for difference in IC50 values with respect to the known calpain inhibitors / inhibition of activity: native enzyme
T1 construct: Native and recombinant enzymatically active calpain I were compared; from tissue; host or cells: human erythrocytes (red blood cells)
T1 sequence (P07384 2-714): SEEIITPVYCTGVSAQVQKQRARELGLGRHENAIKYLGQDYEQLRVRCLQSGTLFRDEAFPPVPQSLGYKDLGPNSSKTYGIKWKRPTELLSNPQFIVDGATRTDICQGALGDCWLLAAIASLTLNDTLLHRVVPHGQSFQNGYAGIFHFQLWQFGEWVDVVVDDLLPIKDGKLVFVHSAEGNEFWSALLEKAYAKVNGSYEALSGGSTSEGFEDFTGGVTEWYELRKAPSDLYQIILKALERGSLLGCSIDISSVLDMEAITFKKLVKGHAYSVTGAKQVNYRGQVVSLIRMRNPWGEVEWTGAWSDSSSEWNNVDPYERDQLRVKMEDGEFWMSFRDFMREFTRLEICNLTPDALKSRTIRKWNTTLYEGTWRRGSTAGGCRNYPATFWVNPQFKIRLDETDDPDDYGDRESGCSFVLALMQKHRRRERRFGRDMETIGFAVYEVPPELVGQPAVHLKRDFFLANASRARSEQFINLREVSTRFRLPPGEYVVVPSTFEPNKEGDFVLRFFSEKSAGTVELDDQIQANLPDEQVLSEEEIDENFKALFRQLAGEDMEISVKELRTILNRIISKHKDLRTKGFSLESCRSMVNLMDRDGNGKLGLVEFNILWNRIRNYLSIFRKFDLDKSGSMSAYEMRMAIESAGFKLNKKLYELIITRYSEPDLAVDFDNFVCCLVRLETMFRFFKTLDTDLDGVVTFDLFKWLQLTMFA
T1 sequence (P04632 1-268 partner): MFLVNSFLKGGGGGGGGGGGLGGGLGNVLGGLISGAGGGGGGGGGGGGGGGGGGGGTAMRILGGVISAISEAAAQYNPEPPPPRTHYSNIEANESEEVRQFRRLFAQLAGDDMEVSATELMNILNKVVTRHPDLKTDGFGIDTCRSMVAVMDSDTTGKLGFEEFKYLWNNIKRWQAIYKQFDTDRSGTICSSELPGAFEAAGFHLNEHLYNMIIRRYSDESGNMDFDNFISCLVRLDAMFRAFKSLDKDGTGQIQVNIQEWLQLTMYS
Description: (§1) To evaluate inhibitor sensitivities, stocks (40 times concentrated) of each inhibitor to be tested were prepared in 100% anhydrous DMSO and 5 μl of each inhibitor preparation were aliquoted into each of three wells of a 96 well plate. Dilutions of each enzyme preparation were made into assay buffer (i.e., 50 mM Tris, 50 mM NaCl, 1 mM EDTA, 1 mM EGTA, and 5 mM β-mercaptoethanol, pH 7.5 including 0.2 mM Succ-Leu-Tyr-MNA) and 175 μl of each dilution aliquoted into the same wells containing the independent inhibitor stocks as well as to positive control wells containing 5 μl DMSO, but no inhibitor. To start the reaction, 20 μl of 50 mM CaCl2 in assay buffer was added to all wells of the plate, excepting three, which were used as background signal baseline controls. Substrate hydrolysis was monitored every 5 minutes for a total of 30 minutes. […] The rate of hydrolysis was determined as the change in fluorescence units per the 10 minute time period between 5 and 15 minutes. At each inhibitor concentration tested, the percent inhibition was determined as the percent decrease in the rate of substrate hydrolysis in the presence of inhibitor versus the rate in its absence. […] Prototypic inhibitors of serine (PMSF) and aspartic proteases (pepstatin A) were also included in this determination.

[3] = target: T2, recombinant human calpain I (Homo sapiens, UniProt P07384); assay: Inhibitor profile: inhibition of Succ-Leu-Tyr-MNA hydrolysis by recombinant calpain I; assay type: biochemical; conditions: for difference in IC50 values with respect to the known calpain inhibitors / inhibition of activity: recombinant enzyme
T2 construct: the 2153 bp fragment containing the entire human 80 kDa calpain I cDNA; made in house; host or cells: Spodoptera frugiperda Sf21 cells, recombinant baculovirus (AcNPV-hCANPI-2-5, or coinfection with AcNPV-hCANP30-5 and AcNPV-hCANPI80-5)
T2 sequence (P07384 2-714): T1 sequence (P07384 2-714)
T2 sequence (P04632 1-268 partner): T1 sequence (P04632 1-268 partner)
Description: as §1

[4] = test system: neurons; conditions: rats, clamping both carotid arteries and lowering arterial blood pressure; cited from earlier work
[5] = test system: native human calpain I; assay: Calcium-dependent protease activity (Succ-Leu-Tyr-AMC), native calpain I; assay type: biochemical; conditions: 12.5 μM calpain inhibitor I; native human calpain I; FIG. 5a
Description: (§2) Sf21 cells were again seeded in 24 well plates at 1.5×10^5 cells/cm^2 and infected with either wild-type virus, coinfected with both AcNPV-hCANP30-5 and AcNPV-hCANPI80-5 (MOI of 5 for each virus), or infected with AcNPV-hCANPI-2-5 (MOI=5.7). The intracellular proteins were harvested at 40 hours after infection with 100 μl/well of the following lysis buffer: 50 mM Tris-HCl, pH 7.5, 50 mM NaCl, 1 mM EDTA, 1 mM EGTA, 5 mM β-mercaptoethanol, 0.1% Triton-100, followed by a 10 minutes centrifugation at 14,000×g at 4° C. to pellet the nuclei and some membranes. The in vitro enzyme activity of 20 μl of each extract (12.5-20 μg of total protein) was measured using the synthetic peptide substrate succinyl-leucine-tyrosine-aminomethyl coumarin (Succ-Leu-Tyr-AMC) at a 1 mM concentration with and without the addition of 5 mM CaCl2 following the procedure of Sasaki et al., J. Biol. Chem., 259:12489-12494 (1984), incorporated herein by reference. The activity obtained was compared with the enzyme activity of 2 μg of partially-purified native human calpain I produced according to the method of Siman et al., supra.
(§3) The activity in the presence of calcium was also measured with the addition of 12.5 μM calpain inhibitor I following the procedure disclosed in Sasaki et al., supra. The results are depicted in FIGS. 5a-d. In FIGS. 5a-d, open circles represent activity without calcium present. […]

[6] = test system: recombinant 80 kDa subunit of calpain I; assay: Enzymatic activity of independently expressed 80 kDa subunit (Succ-Leu-Tyr-AMC); assay type: biochemical, human; conditions: 12.5 μM calpain inhibitor I; 33 μg unfractionated extract; FIG. 8
Description: as §2, with “The activity obtained was compared with the enzyme activity of 2 μg of partially-purified native human calpain I produced according to the method of Siman et al., supra.” left out
To determine the relative activity of the recombinantly produced 80 kDasubunit, the enzymatic activity of the subunit was examined in unfractionated extracts from Sf21 cells infected with AcNPV-hCANPI80-5. […] The same amount of enzyme activity for both the recombinant 80 kDa subunit and the recombinant calpain was then run on SDS-PAGE and the amount of each was qualitatively determined by immunoblot analysis as described in Example 4 above. […]

[7] = target: T2, recombinant human calpain I; assay: Calcium-dependent protease activity (Succ-Leu-Tyr-AMC), recombinant calpain in Sf21 cell extracts; assay type: biochemical; conditions: 12.5 μM calpain inhibitor I; recombinant, coinfected or AcNPV-hCANPI-2-5; FIGS. 5c, 5d
Description: as §2, §3

[8] = test system: rat Na,K-ATPase; conditions: enzyme from insect cells; cited from earlier work
[9] = test system: native human calpain I; assay: Calcium activation of native calpain (Succ-Leu-Tyr-MNA hydrolysis); assay type: biochemical; conditions: pH 7.3, 1 mM Succ-Leu-Tyr-MNA, approximation based on Kd of EGTA, read-out: concentration of calcium required to give 1/2 Vmax
Description: (§4) To determine the calcium concentration required for enzyme activity, tests were performed essentially as described by Kitahara et al., J. Biochem., 95:1759-1766 (1984). First, enzyme preparations were dialyzed overnight against 110 mM imidazole-HCl/1 mM EGTA buffer at pH 7.3 containing 5 mM β-mercaptoethanol. Ten-fold concentrated Ca^2+ /EGTA buffers were prepared by adding varying amounts of CaCl2 to the imidazole/EGTA buffer. Twenty μl of each buffer was put into three wells of a 96 well plate. Dilutions of dialyzed enzyme were made into the imidazole/EGTA buffer containing 1 mM Succ-Leu-Tyr-MNA and 180 μl of each preparation were added to the wells containing the various Ca/EGTA buffers. Substrate hydrolysis was measured every 5 minutes for 30 minutes. The 1/2 Vmax was determined as the rate of substrate hydrolysis which was 50% of the maximal rate achieved in the presence of the varying amounts of calcium. […] The [Ca^2+ ] activation profiles for both the native and recombinant enzymes are virtually identical. In FIG. 9, open squares with interior open circles represent recombinant human calpain I (rhCANPI). Shaded squares with interior open circles represent native human calpain I (nhCANPI).

[10] = target: T2, recombinant human calpain I; assay: Calcium activation of recombinant calpain (Succ-Leu-Tyr-MNA hydrolysis); assay type: biochemical; conditions: pH 7.3, 1 mM Succ-Leu-Tyr-MNA, approximation based on Kd of EGTA, read-out: concentration of calcium required to give 1/2 Vmax
Description: as §4

[11] = test system: cells; conditions: cited from earlier work
[12] = Native calpain, 0.2 mM Succ-Leu-Tyr-MNA, rate between 5 and 15 minutes, read-out: IC50
[13] = Recombinant calpain, 0.2 mM Succ-Leu-Tyr-MNA, rate between 5 and 15 minutes, read-out: IC50

O=C(O)CN(CCOCCOCCN(CC(=O)O)CC(=O)O)CC(=O)O [EGTA]
Kd [1]: 5.5 µM

O=S(=O)(F)Cc1ccccc1 [PMSF, phenylmethylsulfonyl fluoride]
IC50 [2]: > 1000 µM
difference in IC50 values with respect to the known calpain inhibitors [2]: 5-6 fold order of magnitude
inhibition of activity [2]: insignificant inhibition
IC50 [3]: > 1000 µM
difference in IC50 values with respect to the known calpain inhibitors [3]: 5-6 fold order of magnitude
inhibition of activity [3]: insignificant inhibition

CC(C)CC(=O)N[C@H](C(=O)N[C@H](C(=O)N[C@@H](CC(C)C)[C@@H](O)CC(=O)N[C@@H](C)C(=O)N[C@@H](CC(C)C)[C@@H](O)CC(=O)O)C(C)C)C(C)C [Pepstatin A] (Isovaleryl-VV[Sta]A[Sta]-OH)
IC50 [2, 12]: > 10 µM
difference in IC50 values with respect to the known calpain inhibitors [2]: 5-6 fold order of magnitude
inhibition of activity [2]: insignificant inhibition
IC50 [3, 13]: > 10 µM
difference in IC50 values with respect to the known calpain inhibitors [3]: 5-6 fold order of magnitude
inhibition of activity [3]: insignificant inhibition

CC(C)C[C@H](NC(=O)OCc1ccccc1)C(=O)N[C@@H](CC(C)C)C(=O)N[C@@H](Cc1ccccc1)C(=O)C[S+](C)C [Z--Leu--Leu--Phe--CH2 S(+)Me2 Br(-), Z-Leu-Leu-Phe-CH2 S(+)Me2 Br(-)]
IC50 [2, 12]: 0.014 µM
IC50 [3, 13]: 0.008 µM

CCCC[C@@H](C=O)NC(=O)[C@H](CC(C)C)NC(=O)OCc1ccccc1 [Z--Leu--Nle--H, Z-Leu-Nle-H]
IC50 [2, 12]: 0.014 µM
IC50 [3, 13]: 0.01 µM

CCNC(=O)C(=O)[C@H](Cc1ccccc1)NC(=O)[C@H](CC(C)C)NC(=O)OCc1ccccc1 [Z--Leu--Phe--CONHEt, Z-Leu-Phe-CONHEt]
IC50 [2]: 0.056 µM
IC50 [3]: 0.034 µM

CCCC[C@@H](C=O)NC(=O)[C@H](CC(C)C)NC(=O)[C@H](CC(C)C)NC(C)=O [calpain inhibitor I] (Ac-Leu-Leu-[Nle]-aldehyde)
protection of neurons against ischemic and hypoxic damage [4]: protected neurons against ischemic and hypoxic damage
inhibition of calcium-dependent substrate hydrolysis [5]: inhibited
inhibition of activity [6]: completely inhibited
inhibition of calcium-dependent substrate hydrolysis [7]: also inhibited

Na,K-ATPase: functional rat Na,K-ATPase expressed using the baculovirus expression system
activity relative to enzyme from dog kidney outer medulla [8]: 20-25%

calcium
EC50 [9]: 15 µM
EC50 [10]: 14 µM

calpastatin
uptake by cells [11]: not readily taken up by cells
